Measurements as given in publication PMC8952208, “Synthesis, Antiplasmodial, and Antileukemia Activity of Dihydroartemisinin–HDAC Inhibitor Hybrids as Multitarget Drugs” (Pharmaceuticals, 2022).

Experiments:
[1] = tested on: acetylation of α-tubulin (marker of HDAC6 inhibition); test: Immunoblotting, acetyl-α-tubulin in K562 cells; format: cell-based, human; conditions: 0.4 µM, 24 h
Procedure: (§1) K562 cells were treated with the indicated concentration of the compounds or vehicle control (DMSO) for 24 h. The recovered cell pellets were lysed with RIPA buffer (50 mM Tris-HCl pH 8.0, 1% Triton X-100, 0.5% sodium deoxycholate, 0.1% SDS, 150 mM sodium chloride, and 2 mM EDTA), supplemented with protease and phosphatase inhibitors (Thermofischer Scientific, Waltham, MA, USA). An equal amount of total protein (20 µg) was resolved by SDS-PAGE and followed by transfer on nitrocellulose membrane (Sigma-Aldrich). PageRuler prestained protein ladder, 10 kDa to 180 kDa (Thermofisher Scientific, Waltham, MA, USA) was used as a protein molecular weight marker.

[2] = tested on: acetylation of histone H3 (marker of HDAC1 inhibition); test: Immunoblotting, acetyl-histone H3 in K562 cells; format: cell-based, human; conditions: 0.4 µM, 24 h
Procedure: as §1

Structure (SMILES): O=C(CCCCCCC(=O)Nc1ccccc1)NO [Vorinostat, vorinostat]
- acetylation of α-tubulin (immunoblot) [1]: caused hyperacetylation of α-tubulin and histone H3
- acetylation of histone H3 (immunoblot) [2]: caused hyperacetylation of α-tubulin and histone H3
